# Test results published in ChEMBL document CHEMBL5136978, “Research progress in pharmacological activities and structure-activity relationships of tetralone scaffolds as pharmacophore and fluorescent skeleton” (Eur J Med Chem, 2022).
# Tests used:
# [1] = tested on: Staphylococcus aureus; test: Antibacterial activity against Staphylococcus aureus MTCC 096 assessed as bacterial growth inhibition; type: functional
# [2] = tested on: Escherichia coli; test: Antibacterial activity against Escherichia coli MTCC 443 assessed as bacterial growth inhibition; type: functional
# [3] = tested on: Aspergillus niger; test: Antifungal activity against Aspergillus niger MTCC 343 assessed as fungal growth inhibition; type: functional
# [4] = tested on: A-431; test: Antiproliferative activity against human A-431 cells assessed as cell growth inhibition incubated for 48 hrs by methylene blue staining based colorimetric assay; type: functional; settings: A-431, 48 h
# [5] = biological target: T1, Amine oxidase [flavin-containing] A (Bos taurus, UniProt P21398)
# T1 sequence (P21398 whole entry): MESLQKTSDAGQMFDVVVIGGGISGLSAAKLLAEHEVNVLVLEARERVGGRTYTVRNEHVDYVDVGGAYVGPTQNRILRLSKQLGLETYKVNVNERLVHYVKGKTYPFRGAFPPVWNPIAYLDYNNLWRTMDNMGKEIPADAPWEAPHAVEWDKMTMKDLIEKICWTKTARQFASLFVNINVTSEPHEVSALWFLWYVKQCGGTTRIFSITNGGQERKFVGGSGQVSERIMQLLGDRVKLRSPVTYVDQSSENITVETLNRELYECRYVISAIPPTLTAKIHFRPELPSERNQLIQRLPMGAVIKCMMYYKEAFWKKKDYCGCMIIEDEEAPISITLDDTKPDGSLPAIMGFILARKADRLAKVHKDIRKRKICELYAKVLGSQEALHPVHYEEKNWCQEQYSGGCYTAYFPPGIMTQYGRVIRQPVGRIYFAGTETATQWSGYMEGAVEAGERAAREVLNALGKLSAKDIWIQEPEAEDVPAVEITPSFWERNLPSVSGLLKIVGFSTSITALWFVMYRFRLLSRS
# Description: Inhibition of recombinant bovine mitochondrial MAO-A using benzylamine or serotonin as substrate incubated for 60 mins by fluorimetry assay
# [6] = biological target: T2, Acetylcholinesterase (Homo sapiens, UniProt P22303); test: Inhibition of AChE (unknown origin) using acetylthiocholine iodide as substrate incubated for 5 mins by Ellman's method
# [7] = Inhibition of recombinant bovine mitochondrial MAO-B using benzylamine or serotonin as substrate incubated for 60 mins by fluorimetry assay; parameters: species or system Bos taurus
# [8] = biological target: Amyloid-beta precursor protein (Homo sapiens) (UniProt P05067); test: Inhibition of amyloid beta (1 to 42) (unknown origin) self aggregation at 10 uM incubated for 48 hrs by thioflavin-T fluorescence method relative to control
# [9] = biological target: Cholinesterase (Homo sapiens, UniProt P06276)
# Description: Inhibition of BuChE (unknown origin) using acetylthiocholine iodide as substrate incubated for 5 mins by Ellman's method
# [10] = species: Rattus norvegicus; test: Selectivity index, ratio of Ki for A2AAR in rat striata to Ki for A1AR in rat whole brain
# [11] = tested on: Mycobacterium tuberculosis; test: Antibacterial activity against Mycobacterium tuberculosis H37Rv assessed as bacterial growth inhibition; type: functional
# [12] = biological target: T3, Peroxisome proliferator-activated receptor gamma (Homo sapiens, UniProt P37231); test: Displacement of isotopically-labeled PPAR-gamma (unknown origin) assessed as inhibition constant by competitive inhibition assay
# T3 sequence (P37231 whole entry): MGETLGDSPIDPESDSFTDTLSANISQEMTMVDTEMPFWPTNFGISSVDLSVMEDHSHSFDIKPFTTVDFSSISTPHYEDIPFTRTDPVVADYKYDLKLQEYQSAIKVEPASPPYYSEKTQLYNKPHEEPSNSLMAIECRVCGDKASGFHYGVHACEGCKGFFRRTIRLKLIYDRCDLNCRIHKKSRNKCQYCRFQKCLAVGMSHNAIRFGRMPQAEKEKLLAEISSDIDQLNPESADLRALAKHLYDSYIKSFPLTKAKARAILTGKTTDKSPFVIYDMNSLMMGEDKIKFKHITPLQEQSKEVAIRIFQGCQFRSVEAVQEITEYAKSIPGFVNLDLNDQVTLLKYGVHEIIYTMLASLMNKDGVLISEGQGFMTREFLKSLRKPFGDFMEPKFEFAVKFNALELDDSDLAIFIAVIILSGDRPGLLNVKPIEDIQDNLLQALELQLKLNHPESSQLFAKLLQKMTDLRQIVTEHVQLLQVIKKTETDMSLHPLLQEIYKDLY
# [13] = tested on: MCF7; test: Antiproliferative activity against human MCF7 cells assessed as cell growth inhibition measured after 5 days by Coulter counter method; type: functional, cell-based; settings: MCF7, 120 h
# [14] = biological target: T2, Acetylcholinesterase; test: Inhibition of AChE (unknown origin) using […] preincubated for 15 mins by Ellman's method
# [15] = tested on: KB; test: Cytotoxicity aginst human KB cells assessed as cell growth inhibition; type: functional, cell-based; settings: kb
# [16] = species: Rattus norvegicus; test: Selectivity index, ratio of Ki for A2AAR in rat striatal membrane to Ki for A1AR in rat whole brain membrane; type: cell membranes
# T2 sequence (P22303 whole entry): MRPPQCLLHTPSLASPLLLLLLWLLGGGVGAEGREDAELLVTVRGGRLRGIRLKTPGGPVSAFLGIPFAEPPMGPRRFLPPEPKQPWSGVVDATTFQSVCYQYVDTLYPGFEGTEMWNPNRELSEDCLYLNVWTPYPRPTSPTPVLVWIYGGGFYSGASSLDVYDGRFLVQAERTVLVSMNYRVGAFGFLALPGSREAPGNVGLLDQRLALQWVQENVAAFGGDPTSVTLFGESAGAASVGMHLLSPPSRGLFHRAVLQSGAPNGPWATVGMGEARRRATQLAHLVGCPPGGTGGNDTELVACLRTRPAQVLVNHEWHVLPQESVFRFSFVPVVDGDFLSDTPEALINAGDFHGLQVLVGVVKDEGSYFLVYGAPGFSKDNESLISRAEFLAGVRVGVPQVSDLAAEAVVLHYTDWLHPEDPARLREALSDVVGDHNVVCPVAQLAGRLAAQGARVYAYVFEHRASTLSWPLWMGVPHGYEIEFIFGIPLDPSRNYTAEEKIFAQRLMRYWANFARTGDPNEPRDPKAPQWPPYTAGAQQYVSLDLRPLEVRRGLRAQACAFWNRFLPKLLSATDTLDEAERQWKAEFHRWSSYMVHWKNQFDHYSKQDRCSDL
# Cholinesterase, sequence (P06276 whole entry): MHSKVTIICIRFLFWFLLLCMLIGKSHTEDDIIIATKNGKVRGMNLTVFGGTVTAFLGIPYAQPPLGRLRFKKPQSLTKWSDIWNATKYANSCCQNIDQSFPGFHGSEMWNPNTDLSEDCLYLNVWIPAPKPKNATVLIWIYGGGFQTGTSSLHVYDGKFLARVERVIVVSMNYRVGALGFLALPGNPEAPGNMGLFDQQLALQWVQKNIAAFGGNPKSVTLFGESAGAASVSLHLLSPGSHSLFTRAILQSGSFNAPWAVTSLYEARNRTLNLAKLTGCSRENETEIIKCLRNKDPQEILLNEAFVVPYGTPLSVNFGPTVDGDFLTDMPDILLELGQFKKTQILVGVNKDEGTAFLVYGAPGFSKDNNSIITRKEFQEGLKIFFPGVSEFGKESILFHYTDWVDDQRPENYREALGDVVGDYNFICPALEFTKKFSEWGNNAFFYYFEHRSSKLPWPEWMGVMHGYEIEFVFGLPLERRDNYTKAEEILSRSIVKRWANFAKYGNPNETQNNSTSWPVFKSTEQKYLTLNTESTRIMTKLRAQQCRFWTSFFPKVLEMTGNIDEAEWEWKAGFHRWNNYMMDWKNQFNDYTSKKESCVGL
# Amyloid-beta precursor protein (Homo sapiens), sequence (P05067 whole entry): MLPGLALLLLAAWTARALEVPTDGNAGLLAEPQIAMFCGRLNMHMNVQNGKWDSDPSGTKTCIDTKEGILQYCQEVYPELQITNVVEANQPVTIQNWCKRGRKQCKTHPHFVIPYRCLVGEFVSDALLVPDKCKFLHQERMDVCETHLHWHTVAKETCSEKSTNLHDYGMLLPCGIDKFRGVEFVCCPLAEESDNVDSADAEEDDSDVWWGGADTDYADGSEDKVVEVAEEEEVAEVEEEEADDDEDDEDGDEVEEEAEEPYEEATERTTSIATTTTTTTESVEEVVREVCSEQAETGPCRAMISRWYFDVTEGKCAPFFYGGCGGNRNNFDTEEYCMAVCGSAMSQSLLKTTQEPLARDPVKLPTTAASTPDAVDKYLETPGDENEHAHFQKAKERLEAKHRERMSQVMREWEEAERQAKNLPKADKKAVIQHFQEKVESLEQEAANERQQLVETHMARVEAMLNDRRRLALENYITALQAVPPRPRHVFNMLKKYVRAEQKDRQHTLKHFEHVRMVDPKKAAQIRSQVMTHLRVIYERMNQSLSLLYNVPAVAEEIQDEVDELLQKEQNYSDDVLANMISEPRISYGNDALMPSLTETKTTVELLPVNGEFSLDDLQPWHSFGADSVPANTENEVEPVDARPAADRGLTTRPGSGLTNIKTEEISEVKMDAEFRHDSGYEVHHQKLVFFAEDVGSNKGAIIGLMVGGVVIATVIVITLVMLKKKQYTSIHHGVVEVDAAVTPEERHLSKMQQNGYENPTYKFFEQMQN
smiles,measurement,setting,value
COc1ccc2c(c1)CC[C@@H]1C2=NN(C2=NC(=O)C(C)S2)[C@@H]1c1ccc(Cl)cc1 (stereo partly specified),MIC,[1],12.5 µg/mL
same,MIC,[2],12.5 µg/mL
same,MIC,[3],12.5 µg/mL
COc1ccc(/C=C2\CCc3ccccc3C2=O)cc1,IC50,[4],> 20 µM
CC1SC(N2N=C3c4ccccc4CC[C@H]3[C@H]2c2ccc(Cl)cc2)=NC1=O (stereo partly specified),MIC,[1],12.5 µg/mL
same,MIC,[2],12.5 µg/mL
same,MIC,[3],12.5 µg/mL
O=C1/C(=C/c2ccccc2)CCc2ccccc21,IC50,[4],< 10 µM
COc1cc2c(cc1OC)C(=O)C(CC1CCN(Cc3ccccc3)CC1)C2 (stereo unspecified) [DONEPEZIL],IC50,[5],828 µM
CCC1C/C(=C\c2cc(OC)c(OC)c(OC)c2Br)C(=O)c2ccccc21 (stereo unspecified),IC50,[6],0.045 µM
same,IC50,[7],0.88 µM
same,inhibition,[8],80%
same,IC50,[9],12.5 µM
same,IC50,[5],0.92 µM
O=C1/C(=C/c2ccc(O)cc2)CCc2c(O)cccc21,Ratio Ki,[10],6
O=C1/C(=C/c2cccc(O)c2)CCc2c(O)cccc21,Ratio Ki,[10],3.4
Cc1cc(O)c2c(c1)C(O)CCC2=O (stereo unspecified),MIC,[11],100 µg/mL
CC1(C)C=Cc2cc3c(cc2O1)C[C@H](c1ccc(O)cc1)CC3=O,Ki,[12],4.9 µM
Oc1ccc2c(c1)CCc1c(-c3ccc(F)cc3)n[nH]c1-2,IC50,[13],5.6 µM
O=C1CCC(O)c2c(O)cccc21 (stereo unspecified),IC50,[14],1080 µM
C=C(C)C1Cc2cc3c(cc2C1)C(=O)C[C@@H](c1ccc(O)c(O)c1)C3 (stereo partly specified),Ki,[12],4.7 µM
COc1cc(/C=C2\CCc3cc([N+](=O)[O-])ccc3C2=O)c(Br)c(OC)c1OC,IC50,[6],0.57 µM
same,IC50,[7],0.91 µM
same,IC50,[9],6.2 µM
same,IC50,[5],0.99 µM
C[C@@H]1Oc2cccc3c2[C@@H](O1)[C@H](O)CC3=O,IC50,[15],1 ppm
O=C1CC(O)C(O)c2c(O)cccc21 (stereo unspecified),IC50,[14],1410 µM
COc1ccc(/C=C2\CCc3c(O)cccc3C2=O)cc1OC,Ratio Ki,[16],1.03
COC1CC(=O)c2c(O)ccc(O)c2C1 (stereo unspecified),IC50,[14],950 µM
O=C1/C(=C/c2ccncc2)CCc2ccccc21,IC50,[4],< 10 µM
COc1ccc2c(c1)CCc1c(-c3ccc(F)cc3)n[nH]c1-2,IC50,[13],1.5 µM
